Columns and labels:
CLP-induced mortality = experiment: Mouse cecal ligation and puncture (CLP) model of sepsis, survival; format: in vivo; conditions: intravenous infusion of 1 mg/kg
Description: The CLP model is a well established clinically relevant model for human sepsis (Smeding et al., 2012; Amatullah et al., 2016). Male 8-12 week old C57/B16 mice (Jackson lab) were randomized to CLP or sham surgeries. In anesthetised mice, the cecum was exteriorized, ligated, and perforated. Control animals were exposed to sham surgery, in which the cecum was manipulated, but not ligated or punctured. After surgery, animals received daily fluid resuscitation (subcutaneous (s.c.) 50 ml/kg saline), antibiotic (intraperitoneal (i.p.) imipenem 25 mg/kg) and pain management (s.c. buprenorphine 0.2 mg/kg). Experiments were divided into 2 groups: (1) to assess 7-day survival, and (2) to identify a mechanism of action of a G9a inhibitor in vivo. All experimental mice were randomized and investigators were blinded to group assignment.

[1] = tested on: cellular junction protein transcript levels; experiment: Quantitative RT-PCR of cellular junction proteins in zebrafish sepsis model; format: in vivo; conditions: 3 dpf larvae, LPS 27 μg/ml (Salmonella) + 1 μM UNC0642, 24 h
Text: Quantitative reverse transcription polymerase chain reaction (RT-PCR) was used to assess relative expression of cytokines (an average of 3 trials, each trial with a pool of 20 larvae/treatment) and cellular junction proteins (an average of 3 trials, each trial with a pool of 20 larvae/treatment), using elongation factor 1 a (EF1a) as the housekeeping gene control. […] UNC0642 reverses LPS induced reduction in the transcript levels of cellular junction proteins, namely occludin a, occludin b and ZO-1. UNC0642 also upregulates cellular junction protein transcript levels of occludin b, claudin 5a, claudin 5b and claudin 2, potentially improving vascular stability.
RNA extraction and cDNA synthesis. Wildtype zebrafish larvae (3 dpf) were exposed to Vehicle, LPS (27 μg/ml; LPS from Salmonella) or LPS+1 μM UNC0642 by static immersion for 24 h. Total RNA was extracted from these larvae (pool of 20 larvae/treatment) using the RNeasy extraction kit (Qiagen™, Mississauga, Ontario, Canada) and treated with DNase. The concentration of total RNA was determined spectrophotometrically at 260/280 nm using a NanoDrop™ spectrophotometer. […]
PCR conditions. […] The primers are not listed, since suitable primers will be readily apparent to the skilled person.

[2] = tested on: Beas2b human airway epithelial cells; experiment: TNFα-induced ROS production (DCF assay) in beas2b cells; format: cell-based; conditions: TNFα 10 ng/mL, 24 hr
Description: Beas2b human airway epithelial cells were grown to 70% confluency. Cells were treated with TNFα (10 ng/mL) or an equal volume of nuclease-free water in the presence of 0, 0.25, 2.5, or 25 nM of UNC0642. Cell lysates were collected in 1×PBS after 24 hr and freeze-thawed twice to lyse the cells completely. In vitro ROS was measured using OxiSelect In Vitro ROS/RNS Assay Kit with DCF standard. ROS (nM) was calculated from the standard curve and values were normalized by total amount of protein (as measured by Bradford assay). Values are expressed as mean+/−SEM (average of two experimental replicates).

[3] = tested on: LPS-induced ROS production; experiment: ROS production (DCFH-DA) in LPS-treated zebrafish larvae; format: in vivo; conditions: LPS 100 μg/ml + 1 μM UNC0642, 5 h
Description: ROS production was visualised using 2′, 7′-dichlorodihydrofluorescein diacetate (DCFH-DA; Sigma-Aldrich), a ROS indicator. Wildtype zebrafish were exposed to Vehicle, LPS (100 μg/ml) or LPS+1 μM UNC0642 by static immersion for 5 h at 28.5° C. and then incubated along with 100 μM DCFH-DA for 1 h at 28.5° C. in the dark, and washed three times (5 min each) with embryo water. DCFH-DA diffuses into cells and is deacetylated by cellular esterases to non-fluorescent 2′, 7′-Dichlorodihydrofluorescin (DCFH), which is rapidly oxidized to highly fluorescent 2′, 7′-Dichlorofluorescein (DCF) by ROS. The fluorescence intensity is propor-tional to the ROS levels within the cell cytosol. Photographs were acquired using a Leica DFC 300-FX camera and a Leica fluorescence microscope, and were processed with Fiji analysis software. Corrected total fluorescence (CTF) was calculated using the following formula: CTF=Integrated density−(Area of selected cell×Mean fluorescence of background readings) H3K9me2 Immunofluorescence Analysis

## COc1cc2c(NC3CCN(C(C)C)CC3)nc(N3CCC(F)(F)CC3)nc2cc1OCCCN1CCCC1 [UNC0642, 2-(4,4-Difluoropiperidin-1-yl)-6-methoxy-N-[1-(propan-2-yl)piperidin-4-yl]-7-(3-(pyrrolidin-1-yl)propoxy]quinazolin-4-amine]
CLP-induced mortality
  Reduction of CLP-induced absolute mortality: ~50%
[1]
  LPS induced reduction in transcript levels of occludin a, occludin b and ZO-1: reverses
  Transcript levels of occludin b, claudin 5a, claudin 5b and claudin 2: upregulates
[2]
  TNFα-induced increased ROS production: significantly lowered
[3]
  Reduction of LPS-induced ROS production: 40%

From patent publication US11998549B2, “Methods of treating a vascular leakage-associated disease or disorder” (UNITY HEALTH TORONTO, priority 2019, dated 2024)
